In ChEMBL document CHEMBL6134779, “Design of Proteolytic-Resistant Antifungal Peptides by Utilizing Minimum d-Amino Acid Ratios” (J Med Chem, 2024):
≈ marks a conversion by molar mass, not a printed value. Calls of active or inactive are those of the source. No cut-off for these calls is given here.

Experiments:
[1] = system: Candida albicans; assay: Antifungal activity against Candida albicans CGMCC 2.2086 assessed as inhibition of fungal growth incubated for 48 hrs; type: functional
[2] = system: Candida tropicalis; assay: Antifungal activity against Candida tropicalis CGMCC 2.1975 assessed as inhibition of fungal growth incubated for 48 hrs; type: functional
[3] = system: Candida albicans; assay: Antifungal activity against Candida albicans SP3902 assessed as inhibition of fungal growth incubated for 48 hrs; type: functional
[4] = system: Candida albicans; assay: Antifungal activity against Candida albicans SP3903 assessed as inhibition of fungal growth incubated for 48 hrs; type: functional
[5] = system: Candida albicans; assay: Antifungal activity against Fluconazole-resistant Candida albicans 58288 assessed as inhibition of fungal growth incubated for 48 hrs; type: functional
[6] = system: Candida albicans; assay: Antifungal activity against Candida albicans SP3876 assessed as inhibition of fungal growth incubated for 48 hrs; type: functional
[7] = system: Candida albicans; assay: Antifungal activity against Candida albicans SP3931 assessed as inhibition of fungal growth incubated for 48 hrs; type: functional
[8] = system: Candida albicans; assay: Antifungal activity against Candida albicans 14936 assessed as inhibition of fungal growth incubated for 48 hrs; type: functional
[9] = system: Candida albicans; assay: Antifungal activity against Candida albicans 17546 assessed as inhibition of fungal growth incubated for 48 hrs; type: functional
[10] = system: Candida albicans; assay: Antifungal activity against Fluconazole-resistant Candida albicans 56214 assessed as inhibition of fungal growth incubated for 48 hrs; type: functional
[11] = system: Candida albicans; assay: Antifungal activity against Candida albicans 56452 assessed as inhibition of fungal growth incubated for 48 hrs; type: functional
[12] = system: Candida parapsilosis; assay: Antifungal activity against Candida parapsilosis CGMCC 2.3989 assessed as inhibition of fungal growth incubated for 48 hrs; type: functional; settings: Lodderomyces parapsilosis
[13] = Hemolytic activity in human red blood cells assessed as hemolysis incubated for 1 hr; type: toxicity, cell-based, Erythrocyte
[14] = Hemolytic activity in human red blood cells assessed as hemolysis rate at 512 uM incubated for 1 hr relative to control; type: toxicity, cell-based, Erythrocyte; settings: read-out: Activity
[15] = Cytotoxicity against porcine IPEC-J2 cells assessed as reduction in cell viability at 128 uM incubated for 4 hrs by MTT assay; type: toxicity, cell-based, Sus scrofa; settings: pig, ipec-j2, 4 h
[16] = system: HEK293; assay: Cytotoxicity against HEK293 cells assessed as reduction in cell viability at 128 uM incubated for 4 hrs by MTT assay; type: toxicity, cell-based; settings: human, hek293, 4 h
[17] = system: Candida albicans; assay: Antifungal activity against Candida albicans CGMCC 2.2086 assessed as inhibition of fungal growth incubated for 48 hrs in presence of NaCl; type: functional
[18] = system: Candida albicans; assay: Antifungal activity against Candida albicans CGMCC 2.2086 assessed as inhibition of fungal growth incubated for 48 hrs in presence of KCl; type: functional
[19] = system: Candida albicans; assay: Antifungal activity against Candida albicans CGMCC 2.2086 assessed as inhibition of fungal growth incubated for 48 hrs in presence of NH4Cl; type: functional
[20] = system: Candida albicans; assay: Antifungal activity against Candida albicans CGMCC 2.2086 assessed as inhibition of fungal growth incubated for 48 hrs in presence of MgCl2; type: functional
[21] = system: Candida albicans; assay: Antifungal activity against Candida albicans CGMCC 2.2086 assessed as inhibition of fungal growth incubated for 48 hrs in presence of ZnCl2; type: functional
[22] = system: Candida albicans; assay: Antifungal activity against Candida albicans CGMCC 2.2086 assessed as inhibition of fungal growth incubated for 48 hrs in presence of FeCl3; type: functional
[23] = system: Candida albicans; assay: Antifungal activity against Candida albicans CGMCC 2.2086 assessed as inhibition of fungal growth incubated for 48 hrs in presence of CaCl2; type: functional
[24] = Stability of the compound in NaCl assessed as change in secondary structure by CD spectra analysis; type: physicochemical
[25] = Stability of the compound in KCl assessed as change in secondary structure by CD spectra analysis; type: physicochemical
[26] = Stability of the compound in NH4Cl assessed as change in secondary structure by CD spectra analysis; type: physicochemical
[27] = Stability of the compound in MgCl2 assessed as change in secondary structure by CD spectra analysis; type: physicochemical
[28] = Stability of the compound in ZnCl2 assessed as change in secondary structure by CD spectra analysis; type: physicochemical
[29] = Stability of the compound in FeCl3 assessed as change in secondary structure by CD spectra analysis; type: physicochemical
[30] = Stability of the compound in CaCl2 assessed as change in secondary structure by CD spectra analysis; type: physicochemical
[31] = Proteolytic stability of the compound assessed as trypsin (unknown origin)-mediated drug degradation measured after 8 hrs by 16.5% tricine-SDS-PAGE analysis; type: ADME; settings: human
[32] = system: Candida albicans; assay: Antifungal activity against Candida albicans CGMCC 2.2086 assessed as inhibition of fungal growth incubated for 2 hrs in presence of trypsin; type: functional, organism-based
[33] = system: Candida albicans; assay: Antifungal activity against Candida albicans CGMCC 2.2086 assessed as inhibition of fungal growth incubated for 2 hrs in presence of chymotrypsin; type: functional, organism-based
[34] = system: Candida albicans; assay: Antifungal activity against Candida albicans CGMCC 2.2086 assessed as inhibition of fungal growth incubated for 2 hrs in presence of protease K; type: functional, organism-based
[35] = Proteolytic stability of the compound assessed as chymotrypsin (unknown origin)-mediated drug degradation measured after 8 hrs by 16.5% tricine-SDS-PAGE analysis; type: ADME; settings: human
[36] = Proteolytic stability of the compound assessed as protease K (unknown origin)-mediated drug degradation measured after 8 hrs by 16.5% tricine-SDS-PAGE analysis; type: ADME; settings: human

| SMILES | MIC95 [1] | MIC95 [2] | MIC95 [3] | MIC95 [4] | MIC95 [5] | MIC95 [6] | MIC95 [7] | MIC95 [8] | MIC95 [9] | MIC95 [10] | MIC95 [11] | MIC95 [12] | other results |
| --- | --- | --- | --- | --- | --- | --- | --- | --- | --- | --- | --- | --- | --- |
| CC[C@H](C)[C@H](N)C(=O)N[C@H](C(=O)N[C@H](CCCNC(=N)N)C(=O)N[C@@H](CCCNC(=N)N)C(=O)N[C@@H](Cc1c[nH]cn1)C(=O)N[C@H](C(=O)N[C@H](C(=O)N[C@H](C(=O)N[C@H](C(=O)N[C@H](CCCNC(=N)N)C(=O)N[C@@H](CCCNC(=N)N)C(=O)N[C@@H](Cc1c[nH]cn1)C(=O)N[C@H](C(=O)N[C@H](C(=O)N[C@H](C(=O)N[C@H](C(=O)N[C@H](CCCNC(=N)N)C(=O)N[C@@H](CCCNC(=N)N)C(=O)N[C@@H](Cc1c[nH]cn1)C(=O)N[C@H](C(=O)N[C@H](C(=O)N[C@H](C(=O)N[C@H](C(=O)N[C@H](CCCNC(=N)N)C(=O)N[C@@H](CCCNC(=N)N)C(=O)N[C@@H](Cc1c[nH]cn1)C(=O)N[C@H](C(=O)N[C@H](C(N)=O)[C@@H](C)CC)[C@@H](C)CC)[C@@H](C)CC)[C@@H](C)CC)[C@@H](C)CC)[C@@H](C)CC)[C@@H](C)CC)[C@@H](C)CC)[C@@H](C)CC)[C@@H](C)CC)[C@@H](C)CC)[C@@H](C)CC)[C@@H](C)CC)[C@@H](C)CC)[C@@H](C)CC | 4 µM (≈ 14.5 µg/mL) | 4 µM (≈ 14.5 µg/mL) | 4 µM (≈ 14.5 µg/mL) | 4 µM (≈ 14.5 µg/mL) | 8 µM (≈ 29 µg/mL) | 4 µM (≈ 14.5 µg/mL) | 8 µM (≈ 29 µg/mL) | 4 µM (≈ 14.5 µg/mL) | 8 µM (≈ 29 µg/mL) | 4 µM (≈ 14.5 µg/mL) | 8 µM (≈ 29 µg/mL) | 4 µM (≈ 14.5 µg/mL) | HC50 at 1 h [13]: > 512 µM; hemolysis at 1 h, 512 µM [14]: 38.9%; Activity [15]: Toxic; Activity [16]: Toxic; MIC95 [17]: 32 µM; MIC95 [18]: 8 µM; MIC95 [19]: 8 µM; MIC95 [20]: 8 µM; MIC95 [21]: 16 µM; MIC95 [22]: 16 µM; MIC95 [23]: 16 µM; Stability [24]: Unstable; Stability [25]: Stable; Stability [26]: Stable; Stability [27]: Stable; Stability [28]: Stable; Stability [29]: Stable; Stability [30]: Stable |
| CC[C@H](C)[C@H](NC(=O)CN)C(=O)NCC(=O)N[C@@H](C)C(=O)N[C@H](C(=O)N[C@@H](CC(C)C)C(=O)N[C@@H](CCCCN)C(=O)N[C@H](C(=O)N[C@@H](CC(C)C)C(=O)N[C@H](C(=O)N[C@H](C(=O)NCC(=O)N[C@@H](CC(C)C)C(=O)N1CCC[C@H]1C(=O)N[C@@H](C)C(=O)N[C@@H](CC(C)C)C(=O)N[C@H](C(=O)N[C@@H](CO)C(=O)N[C@@H](Cc1c[nH]c2ccccc12)C(=O)N[C@H](C(=O)N[C@@H](CCCCN)C(=O)N[C@@H](CCCNC(=N)N)C(=O)N[C@@H](CCCCN)C(=O)N[C@@H](CCCNC(=N)N)C(=O)N[C@@H](CCC(N)=O)C(=O)N[C@@H](CCC(N)=O)C(N)=O)[C@@H](C)CC)[C@@H](C)CC)[C@@H](C)O)[C@@H](C)O)C(C)C)C(C)C [MELITTIN] | 4 µM (≈ 11.4 µg/mL) | 2 µM (≈ 5.69 µg/mL) | 4 µM (≈ 11.4 µg/mL) | 4 µM (≈ 11.4 µg/mL) | 4 µM (≈ 11.4 µg/mL) | 4 µM (≈ 11.4 µg/mL) | 4 µM (≈ 11.4 µg/mL) | 4 µM (≈ 11.4 µg/mL) | 4 µM (≈ 11.4 µg/mL) | 2 µM (≈ 5.69 µg/mL) | 4 µM (≈ 11.4 µg/mL) | 2 µM (≈ 5.69 µg/mL) | Stability [31]: Unstable; Activity [32]: inactive; Activity [33]: inactive; Activity [34]: inactive; Stability [35]: Unstable; Stability [36]: Unstable |
